Test results reported in patent EP2710893A1, “Methods of treating autism spectrum disorders and compositions for same” (Theta Biomedical Consulting&development Co., Inc, priority 2009, dated 2011).

What was measured:
mast cells = assay: Inhibition of mast cells; format: cell-based; conditions: Mast cell
[1] = test system: brain blood vessel leakage; assay: Evans blue extravasation (brain blood vessel leakage) in mice; format: in vivo
Method: Male BALB/6 mice (6 weeks old, Jackson Laboratories, Bar Harbor, ME) were injected in their tail vein with 0.2 ml of Evans blue (0.4%). Binding of Evans blue to the albumin found in the blood prevents Evans blue from escaping the circulation and constitutes a good marker from extravasation in brain parenchyma.
Brain blood vessel leakage was assessed with Evans blue extravasation at 2 hr following Evans blue and 30 min after intraperitoneal injection of NT. Mice were anesthetized with a single intraperitoneal injection of ketamine/xylazine ([…]), an intracardiac catheter was inserted in the left ventricle, blood was withdrawn, and 10 ml normal saline was administered intracardially to wash any Evans blue from the systemic circulation. The mice were then decapitated and the whole brain was removed. For brain extravasated Evans blue measurements, the brains were first weighed and the Evans blue was then extracted in 1 ml of N,N-dimethylformamide overnight at 55 °C and the optical density was measured at 620 nm using a PerkinElmer Luminescence Spectrophotometer (Perkin Elmer, Norwalk, CT). EB concentration was calculated using a standard curve and values were normalized to the tissue weight and expressed as arbitrary units/mg of tissue. Five animals per group were estimated to be sufficient for significant differences given the variability (<50%) observed. Results of Evans blue/mg tissue were expressed as mean ± SD of percent change from control. This statistical analysis was chosen because it permits the experimental results to be compared to their own control and avoids variability from experiment to experiment. Values were then compared using the non-parametric Mann-Whitney U test. Significance is denoted by p<0.05. In order to induce brain blood vessel leakage, the mice were either treated only with an intraperitoneal injection (0.5 ml) of NT (500 nmol/kg body weight) or first pretreated with the flavonoid luteolin (40 mg/kg body weight) mixed in olive kernel extract to permit solubilization and increased absorption of the lipid-soluble luteolin. The mice not treated with luteolin were pretreated the same way only with the vehicle in order to keep the conditions similar [olive kernel extract, obtained from Minerva Edible Oils, Athens, Greece (http://www.minerva.com.gr/)]. […] When the mice were treated with both IL-33 (1 microg/mouse) and NT, brain leakage was even greater (Fig. 3); IL-33 alone had no effect. Pretreatment with the same amount of luteolin as before inhibited brain blood vessel leakage by 50% (Fig. 3). Using more luteolin could inhibit the synergistic effect of IL-33 and NT.

**Q.** For O=c1c(O)c(-c2ccc(O)c(O)c2)oc2cc(O)cc(O)c12 [Quercetin], which inhibition at 10 µM (mast cells) is on record?
**A.** 80%

**Q.** With neurotensin [NT] as the compound, how does the “increase in brain blood vessel leakage” value ([1]; intraperitoneal injection of NT 500 nmol/kg body weight, Evans blue extravasation 30 min after NT, percent change from control) read?
**A.** 150%

**Q.** For O=c1cc(-c2ccc(O)c(O)c2)oc2cc(O)cc(O)c12 [luteolin], which “inhibition of brain blood vessel leakage” value ([1]; Figure 3 legend, intraperitoneal luteolin 10 min prior to injection of IL-33 plus NT) is on record?
**A.** inhibited

**Q.** And the “inhibition of brain blood vessel leakage” value ([1]; NT-induced leakage, pretreatment with luteolin 40 mg/kg body weight mixed in olive kernel extract)?
**A.** completely inhibited

**Q.** What about the “inhibition of brain blood vessel leakage” value ([1]; leakage induced by IL-33 (1 microg/mouse) and NT, pretreatment with luteolin 40 mg/kg body weight) of the same compound?
**A.** 50%
